The source made the active and inactive calls.
What was measured:
[1] = NIH-3T3 fibroblast cytotoxicity, dose response, cytotoxicity control, cell-based, fluorescence, Alamar Blue, secondary assay (AID 2327); format: functional;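 also: NIH-3T3 mouse fibroblasts cultured with fluconazole at 8 µg/mL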
[2] = C. albicans growth with fluconazole, confirmation, fluorescence, retest (AID 2467); format: functional, cell-based
[3] = system: HEK293; experiment: inhibitors of LMP1-driven NF-kB reporter, dose response, cell-based, HEK293, luciferase, cherry-pick (AID 588343); format: functional; conditions: Homo sapiens
[4] = biological target: T1, High affinity choline transporter 1 (Homo sapiens, UniProt Q9GZV3); experiment: CHT inhibitors, dose response, cell-based, 5-point CRC, membrane potential dye (AID 504840); format: functional
T1 sequence (Q9GZV3 whole entry): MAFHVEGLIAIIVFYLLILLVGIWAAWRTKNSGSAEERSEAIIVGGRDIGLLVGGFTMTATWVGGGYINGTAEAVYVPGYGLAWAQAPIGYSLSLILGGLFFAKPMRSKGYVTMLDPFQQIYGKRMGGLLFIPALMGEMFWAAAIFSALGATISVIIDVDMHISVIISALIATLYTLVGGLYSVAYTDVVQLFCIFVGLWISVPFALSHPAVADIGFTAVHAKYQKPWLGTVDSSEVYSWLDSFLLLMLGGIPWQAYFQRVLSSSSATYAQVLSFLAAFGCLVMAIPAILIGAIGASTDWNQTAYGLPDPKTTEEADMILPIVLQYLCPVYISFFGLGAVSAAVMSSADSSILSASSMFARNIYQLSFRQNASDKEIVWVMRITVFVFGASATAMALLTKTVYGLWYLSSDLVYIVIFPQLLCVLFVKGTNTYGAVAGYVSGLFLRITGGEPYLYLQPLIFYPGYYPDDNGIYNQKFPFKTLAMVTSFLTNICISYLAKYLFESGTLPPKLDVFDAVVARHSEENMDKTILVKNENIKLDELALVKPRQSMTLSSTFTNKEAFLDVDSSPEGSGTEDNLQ

[5] = system: Vero; experiment: cells; format: functional, cell-based; conditions: Chlorocebus sabaeus
[6] = system: Vero; experiment: cells; format: functional; conditions: Chlorocebus sabaeus
[7] = biological target: T2, Corticotropin-releasing factor receptor 2/Corticotropin-releasing factor-binding protein (Homo sapiens, UniProt P24387+Q13324); experiment: Dose Response confirmation of uHTS hits for small molecule antagonists of the CRF-binding protein and CRF-R2 receptor complex.; format: functional; conditions: read-out: IC50_Mean
T2 sequence (Q13324 whole entry): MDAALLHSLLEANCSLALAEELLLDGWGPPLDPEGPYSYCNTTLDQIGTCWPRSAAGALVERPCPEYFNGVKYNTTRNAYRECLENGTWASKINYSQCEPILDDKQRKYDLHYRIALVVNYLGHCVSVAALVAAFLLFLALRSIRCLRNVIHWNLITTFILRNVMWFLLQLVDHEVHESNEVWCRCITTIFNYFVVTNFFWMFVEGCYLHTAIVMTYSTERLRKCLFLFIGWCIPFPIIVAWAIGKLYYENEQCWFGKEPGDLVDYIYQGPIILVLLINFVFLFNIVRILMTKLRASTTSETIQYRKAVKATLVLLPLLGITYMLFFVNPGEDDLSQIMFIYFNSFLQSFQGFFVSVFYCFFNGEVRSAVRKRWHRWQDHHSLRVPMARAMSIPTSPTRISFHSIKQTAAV
T2 sequence (P24387 whole entry): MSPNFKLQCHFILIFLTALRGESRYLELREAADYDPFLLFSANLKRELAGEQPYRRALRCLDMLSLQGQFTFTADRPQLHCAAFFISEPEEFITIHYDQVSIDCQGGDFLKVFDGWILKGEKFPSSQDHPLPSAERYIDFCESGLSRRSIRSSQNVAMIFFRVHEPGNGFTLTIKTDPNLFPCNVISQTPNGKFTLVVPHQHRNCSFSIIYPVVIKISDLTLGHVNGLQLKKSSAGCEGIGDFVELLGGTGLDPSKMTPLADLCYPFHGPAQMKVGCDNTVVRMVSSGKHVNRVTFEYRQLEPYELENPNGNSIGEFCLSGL

[8] = biological target: T2, Corticotropin-releasing factor receptor 2/Corticotropin-releasing factor-binding protein; experiment: activators of CRF receptor 2 with binding protein – uHTS hits, confirmation (AID 602473); format: functional; conditions: read-out: EC50_Mean
[9] = CRF-BP/CRF-R2 complex antagonists, dose response, cell-based, uHTS hits, 384-well (AID 651639); format: functional, Homo sapiens; conditions: read-out: IC50_Mean
[10] = biological target: T3, Microphthalmia-associated transcription factor (Homo sapiens, UniProt O75030); experiment: TRPM1 promoter luciferase signal decrease, dose response, MITF inhibitor project, cell-based, SK-MEL-5, cherry-picked, set 3 (AID 493073); format: functional
T3 sequence (O75030 whole entry): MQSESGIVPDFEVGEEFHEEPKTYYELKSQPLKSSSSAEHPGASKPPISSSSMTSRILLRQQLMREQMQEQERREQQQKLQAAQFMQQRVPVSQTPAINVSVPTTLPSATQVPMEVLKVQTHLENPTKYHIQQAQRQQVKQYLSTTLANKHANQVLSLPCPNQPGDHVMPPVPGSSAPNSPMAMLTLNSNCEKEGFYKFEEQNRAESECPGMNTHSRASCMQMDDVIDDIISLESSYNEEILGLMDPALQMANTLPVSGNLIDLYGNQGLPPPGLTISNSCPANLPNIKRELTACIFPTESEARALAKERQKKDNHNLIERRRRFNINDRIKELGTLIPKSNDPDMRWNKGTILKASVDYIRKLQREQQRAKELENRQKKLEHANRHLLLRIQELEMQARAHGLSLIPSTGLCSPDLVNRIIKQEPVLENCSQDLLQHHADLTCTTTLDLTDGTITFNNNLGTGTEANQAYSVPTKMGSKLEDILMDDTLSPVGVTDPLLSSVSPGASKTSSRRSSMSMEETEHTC

[11] = biological target: Genome polyprotein (dengue virus type 2, UniProt P29990); experiment: Dengue-2 NS5 methyltransferase inhibitors, primary screen, biochemical, confirmation dose response (AID 588689); format: functional
Sequence of Genome polyprotein (P29990 2492-3391 limits assumed): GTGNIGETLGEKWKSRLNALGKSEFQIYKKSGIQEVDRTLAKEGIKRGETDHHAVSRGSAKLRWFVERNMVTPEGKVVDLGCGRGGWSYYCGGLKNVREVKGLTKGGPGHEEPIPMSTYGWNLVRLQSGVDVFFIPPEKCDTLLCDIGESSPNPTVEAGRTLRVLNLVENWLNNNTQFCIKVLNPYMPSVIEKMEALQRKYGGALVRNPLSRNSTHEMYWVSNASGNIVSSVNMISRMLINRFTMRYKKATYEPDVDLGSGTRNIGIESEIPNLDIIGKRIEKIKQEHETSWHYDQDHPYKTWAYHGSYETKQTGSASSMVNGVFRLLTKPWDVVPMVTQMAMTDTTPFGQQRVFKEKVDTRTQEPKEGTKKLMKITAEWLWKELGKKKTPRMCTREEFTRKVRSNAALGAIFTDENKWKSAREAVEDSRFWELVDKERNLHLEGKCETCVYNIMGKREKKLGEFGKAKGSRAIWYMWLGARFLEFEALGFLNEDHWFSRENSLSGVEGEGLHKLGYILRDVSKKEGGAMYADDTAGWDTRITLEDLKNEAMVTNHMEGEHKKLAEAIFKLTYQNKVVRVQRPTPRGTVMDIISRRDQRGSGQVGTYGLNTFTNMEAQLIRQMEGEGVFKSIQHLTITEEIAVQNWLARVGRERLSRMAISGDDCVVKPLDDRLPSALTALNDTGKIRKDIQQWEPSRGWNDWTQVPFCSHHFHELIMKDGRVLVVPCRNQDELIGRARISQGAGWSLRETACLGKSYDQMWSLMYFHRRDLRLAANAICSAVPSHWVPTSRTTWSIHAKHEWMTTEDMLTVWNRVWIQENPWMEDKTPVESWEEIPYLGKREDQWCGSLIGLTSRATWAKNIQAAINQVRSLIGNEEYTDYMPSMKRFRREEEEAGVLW

[12] = inhibitors of intracellular T. cruzi replication, confirmation, NIH3T3 host cells, beta-gal luminescence (AID 2044); format: functional, cell-based;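 also: intracellular parasites grown in NIH/3T3 mouse fibroblasts as host cells; luminescent beta-galactosidase reporter signal from transgenic T. cruzi replicating inside host cells; inhibitors lower the luminescence signal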
[13] = cytotoxicity toward NIH3T3 fibroblasts, dose response, counter-screen, cell-based, ATP luminescence, mouse fibroblasts (AID 2010); format: functional;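 also: cells exposed to compound for about 90 hours before reading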
[14] = Shn3 3'UTR reporter inhibitors, dose response, cell-based, Clone20 osteoblasts, firefly luciferase, cherry-picked (AID 624132); format: functional;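 also: firefly luciferase luminescence from reporter carrying the Shn3 3'UTR in osteoblasts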
[15] = HepG2 cell cytotoxicity, dose response, cytotoxicity control for Shn3 inhibitor project, CellTiter-Glo, cherry-picked (AID 624134); format: functional, cell-based
[16] = control 3'UTR Renilla luciferase suppression, dose response, counter-screen for Shn3 inhibitor project, cell-based, Clone20-Shn3RL, cherry-picked (AID 624133); format: functional
[17] = system: Streptococcus sp. 'group A'; experiment: growth inhibition of control SK(-) GAS strain, dose response, counter-screen for streptokinase expression inhibitor project, luminescence, kanamycin, BacTiterGlo, confirmation (AID 1900); format: functional, organism-based
[18] = biological target: T4, Streptokinase A (Streptococcus pyogenes serotype M1, UniProt P10520); experiment: S. pyogenes streptokinase expression inhibitors, potency, dose response, plasminogen activation absorbance, OD405 (AID 1914); format: functional, Streptococcus pyogenes M1 GAS;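 also: secreted streptokinase activity via plasminogen activation per viability signal from cell pellet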
T4 sequence (P10520 whole entry): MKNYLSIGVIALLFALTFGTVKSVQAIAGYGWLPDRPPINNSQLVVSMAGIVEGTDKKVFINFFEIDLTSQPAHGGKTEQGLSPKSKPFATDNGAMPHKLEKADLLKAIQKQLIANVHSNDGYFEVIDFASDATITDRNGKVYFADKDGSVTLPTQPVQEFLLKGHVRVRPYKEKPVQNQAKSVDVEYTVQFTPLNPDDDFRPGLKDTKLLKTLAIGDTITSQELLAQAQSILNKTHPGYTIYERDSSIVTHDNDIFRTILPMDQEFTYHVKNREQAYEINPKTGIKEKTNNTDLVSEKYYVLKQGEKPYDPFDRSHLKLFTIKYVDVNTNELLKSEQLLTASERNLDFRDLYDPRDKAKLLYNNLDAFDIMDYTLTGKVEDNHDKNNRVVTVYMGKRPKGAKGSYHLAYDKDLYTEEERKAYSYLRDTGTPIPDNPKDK

[19] = system: Streptococcus; experiment: Group A Streptococcus viability loss, dose response, counter-screen for streptokinase expression inhibitor project, luminescence, BacTiterGlo (AID 1915); format: functional, organism-based;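 also: potency for reduction of bacterial viability or growth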
[20] = biological target: T5, Short transient receptor potential channel 4 (Mus musculus, UniProt Q9QUQ5); experiment: mouse TRPC4 channel inhibitors, dose response, cell-based, HEK293 TRPC4/mu-opioid, Fluo-4 calcium (AID 434942); format: functional;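 also: potency of inhibitors blocking the TRPC4 calcium response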
T5 sequence (Q9QUQ5 whole entry): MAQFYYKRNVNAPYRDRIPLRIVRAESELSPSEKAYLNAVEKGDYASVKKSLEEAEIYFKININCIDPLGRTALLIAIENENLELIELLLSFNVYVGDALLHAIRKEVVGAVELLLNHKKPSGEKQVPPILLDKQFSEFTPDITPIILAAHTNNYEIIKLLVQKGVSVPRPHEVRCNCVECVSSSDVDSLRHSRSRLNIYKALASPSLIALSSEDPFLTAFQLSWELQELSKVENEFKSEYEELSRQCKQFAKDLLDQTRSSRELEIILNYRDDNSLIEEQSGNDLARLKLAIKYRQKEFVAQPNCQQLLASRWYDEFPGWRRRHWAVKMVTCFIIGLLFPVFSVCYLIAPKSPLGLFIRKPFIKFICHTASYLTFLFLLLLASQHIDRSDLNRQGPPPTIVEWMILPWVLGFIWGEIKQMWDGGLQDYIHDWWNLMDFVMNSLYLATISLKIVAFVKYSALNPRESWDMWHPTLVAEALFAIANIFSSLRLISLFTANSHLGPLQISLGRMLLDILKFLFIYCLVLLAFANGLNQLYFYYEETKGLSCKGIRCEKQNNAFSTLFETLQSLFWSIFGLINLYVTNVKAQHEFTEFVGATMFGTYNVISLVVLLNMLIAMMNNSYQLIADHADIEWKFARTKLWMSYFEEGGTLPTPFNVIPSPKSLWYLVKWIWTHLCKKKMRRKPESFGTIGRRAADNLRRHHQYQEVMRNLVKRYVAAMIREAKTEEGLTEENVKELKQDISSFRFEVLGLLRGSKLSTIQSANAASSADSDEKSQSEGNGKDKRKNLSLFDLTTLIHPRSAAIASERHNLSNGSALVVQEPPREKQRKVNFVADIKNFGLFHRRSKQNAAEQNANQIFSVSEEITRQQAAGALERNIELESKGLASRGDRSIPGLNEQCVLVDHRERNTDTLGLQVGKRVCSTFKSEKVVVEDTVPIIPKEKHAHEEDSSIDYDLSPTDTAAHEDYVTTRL

[21] = biological target: T6, DNA repair protein RAD52 homolog (Homo sapiens, UniProt P43351); format: functional, biochemical
T6 sequence (P43351 whole entry): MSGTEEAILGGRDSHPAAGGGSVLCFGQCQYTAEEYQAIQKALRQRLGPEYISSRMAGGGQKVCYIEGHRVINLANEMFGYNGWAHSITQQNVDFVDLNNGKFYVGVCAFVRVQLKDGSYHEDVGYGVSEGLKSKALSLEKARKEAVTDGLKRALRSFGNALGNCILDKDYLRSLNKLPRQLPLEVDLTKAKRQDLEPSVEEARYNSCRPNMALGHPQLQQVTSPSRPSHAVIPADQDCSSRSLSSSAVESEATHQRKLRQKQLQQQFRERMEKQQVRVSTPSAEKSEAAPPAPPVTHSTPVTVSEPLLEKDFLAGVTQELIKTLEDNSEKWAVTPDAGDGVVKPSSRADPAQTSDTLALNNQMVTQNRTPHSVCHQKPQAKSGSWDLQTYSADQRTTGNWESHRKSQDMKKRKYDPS

[22] = biological target: Paired box protein Pax-8 (Homo sapiens, UniProt Q06710); experiment: inhibitors of PAX8-driven TPO luciferase reporter, dose response, RMG-I cells, cherry-pick (AID 687027); format: functional, cell-based;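 also: luciferase reporter driven by Pax8 target thyroperoxidase promoter measured by SteadyGlo luminescence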
Sequence of Paired box protein Pax-8 (Q06710 whole entry): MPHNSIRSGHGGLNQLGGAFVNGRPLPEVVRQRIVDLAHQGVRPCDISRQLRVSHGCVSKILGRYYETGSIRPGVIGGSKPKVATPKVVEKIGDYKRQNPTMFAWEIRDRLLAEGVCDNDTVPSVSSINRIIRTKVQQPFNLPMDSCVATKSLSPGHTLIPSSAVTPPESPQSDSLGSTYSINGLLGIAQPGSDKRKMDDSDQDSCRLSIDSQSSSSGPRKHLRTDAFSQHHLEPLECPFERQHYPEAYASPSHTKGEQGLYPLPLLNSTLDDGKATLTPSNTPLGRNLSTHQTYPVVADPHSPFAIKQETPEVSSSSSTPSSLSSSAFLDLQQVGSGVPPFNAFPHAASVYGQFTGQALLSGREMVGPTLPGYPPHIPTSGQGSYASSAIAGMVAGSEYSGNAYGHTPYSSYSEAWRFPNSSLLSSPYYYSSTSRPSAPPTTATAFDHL

## Brc1cccc(CSc2nnc(-c3ccncc3)o2)c1
[1]
  EC50: 41.1 µM (active)
[2]
  EC50: > 38 µM (not active)
[3]
  AC50: 47 µM (active)

## Cc1nn(C(C)C(=O)NC(C)CCc2ccccc2)c(=O)c2cc3occc3n12 (stereo unspecified)
[4]
  IC50: 17.4 µM (active)

## Clc1ccc(-c2cc(C3CCNCC3)[nH]n2)c(Cl)c1
[5]
  IC50: 24.8 µM (active)
[6]
  CC50: > 25 µM (active)

## Cc1ccc(-c2csc(Nc3ccc(C(=O)O)cc3)[n+]2Cc2ccccc2)cc1
[7]
  IC50: 13 µM (active)
[8]
  EC50: > 53 µM (inactive)
[9]
  IC50: 16.5 µM (active)

## CC(C)n1c(O)c(C2c3cc(Cl)ccc3Oc3[nH]c(=O)n(C(C)C)c(=O)c32)c(=O)[nH]c1=O (stereo unspecified)
[10]
  AC50: 5.39 µM (active)

## Cc1cc(C)cc(OC(C)C(=O)Nc2ccc(S(=O)(=O)Nc3cc(C)nc(C)n3)cc2)c1 (stereo unspecified)
[4]
  IC50: 13.2 µM (active)

## COc1cccc(/C=C2\SC(=S)N(NS(=O)(=O)c3ccccc3)C2=O)c1OC
[4]
  IC50: 0.692 µM (active)
[11]
  IC50: 41.1 µM (active)
[7]
  IC50: 22.3 µM (active)
[8]
  EC50: > 53 µM (inactive)

## CCCc1nc2ccc(Br)cc2c(=O)n1-c1ccc([N+](=O)[O-])c(C(F)(F)F)c1
[12]
  EC50: 2 µM (active)
[13]
  EC50: > 60 µM (not active)
[3]
  AC50: 29.2 µM (active)
[14]
  AC50: 15.7 µM (active)
[15]
  AC50: 7.4 µM (active)
[16]
  AC50: 11.7 µM (active)

## CCCCCCCCCCCCOC(=O)C[N+](C)(C)C
[17]
  EC50: 3.32 µM (active)
[18]
  EC50: 20.7 µM (active)
[19]
  EC50: 10.6 µM (active)
[20]
  EC50: 2.99 µM (active)
[21]
  AC50: 26.4 µM (active)

## CC1(CCCc2ccc(N(CCCl)CCCl)cc2)NC(=O)NC1=O (stereo unspecified)
[3]
  AC50: 4.51 µM (active)

## Cc1ccccc1C(=O)c1cccn1CC(=O)NC(C)c1ccccc1 (stereo unspecified)
[4]
  IC50: 12.6 µM (active)

## CC(=O)O[C@H]1C[C@H](O[C@H]2[C@@H](O)C[C@H](O[C@H]3[C@@H](O)C[C@H](O[C@H]4CC[C@@]5(C)[C@H](CC[C@@H]6[C@@H]5CC[C@]5(O)[C@@H](C7=CC(=O)OC7)CC[C@]65O)C4)O[C@@H]3C)O[C@@H]2C)O[C@H](C)[C@H]1O[C@@H]1O[C@H](CO)[C@@H](O)[C@H](O)[C@H]1O
[5]
  IC50: < 0.05 µM (active)
[6]
  CC50: 1.78 µM (active)
[22]
  AC50: 1.98 µM (active)

— ChEMBL document CHEMBL1201862, “PubChem BioAssay data set” (2004)
